From patent US7572786B2, “Substituted 1-piperidin-3-yl-4-piperidin-4-yl-piperazine derivatives and their use as neurokinin antagonists” (Janssen Pharmaceutica, N.V., priority 2002, dated 2009)

Legend:
Assay type in all cases: cell-based
[1] = target: NK1 (Homo sapiens, UniProt P25103); assay: Signal transduction (ST), intracellular Ca++ (FLIPR), NK1 antagonism; conditions: for IC50: read-out: pIC50 NK1 (converted)
Description: (§1) This test evaluates in vitro functional NK1 antagonistic activity. For the measurements of intracellular Ca^++ concentrations the cells were grown on 96-well (black wall/transparent bottom) plates from Costar for 2 days until they reached confluence. The cells were loaded with 2 μM Fluo3 in DMEM containing 0.1% BSA and 2.5 mM probenecid for 1 h at 37° C. […] The cells were preincubated with a concentration range of antagonists for 20 min at RT and Ca^++-signals after addition of the agonists were measured in a Fluorescence Image Plate Reader (FLIPR from Molecular Devices, Crawley, England). The peak of the Ca^++-transient was considered as the relevant signal and the mean values of corresponding wells were analysed as described below.
(§2) The sigmoidal dose response curves were analysed by computerised curve-fitting, using the GraphPad Program. […] For antagonist responses the IC50-value was calculated using non-linear regression.

[2] = target: T1, NK3 (Homo sapiens, UniProt P29371); assay: Signal transduction (ST), intracellular Ca++ (FLIPR), NK3; conditions: read-out: pIC50 NK3 (converted)
T1 sequence (P29371 1-465): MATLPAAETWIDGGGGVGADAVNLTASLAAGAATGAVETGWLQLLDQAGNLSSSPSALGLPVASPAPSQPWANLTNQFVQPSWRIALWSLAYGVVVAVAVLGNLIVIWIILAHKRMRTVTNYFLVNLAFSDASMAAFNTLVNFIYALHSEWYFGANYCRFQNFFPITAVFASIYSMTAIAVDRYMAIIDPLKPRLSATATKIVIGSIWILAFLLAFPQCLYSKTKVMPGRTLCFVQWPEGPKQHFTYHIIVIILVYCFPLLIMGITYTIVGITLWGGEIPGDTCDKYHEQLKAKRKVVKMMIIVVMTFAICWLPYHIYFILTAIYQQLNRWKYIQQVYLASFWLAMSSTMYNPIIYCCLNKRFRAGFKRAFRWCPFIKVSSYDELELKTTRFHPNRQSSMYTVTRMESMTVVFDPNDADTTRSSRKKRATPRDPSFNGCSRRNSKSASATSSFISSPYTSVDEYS
Description: [The source words this procedure for another target and reports this target under the same test.] as §1, §2

[3] = target: T2, NK2 (Homo sapiens, UniProt P21452); assay: Signal transduction (ST), intracellular Ca++ (FLIPR), NK2; conditions: read-out: pIC50 NK2 (converted)
T2 sequence (P21452 1-398): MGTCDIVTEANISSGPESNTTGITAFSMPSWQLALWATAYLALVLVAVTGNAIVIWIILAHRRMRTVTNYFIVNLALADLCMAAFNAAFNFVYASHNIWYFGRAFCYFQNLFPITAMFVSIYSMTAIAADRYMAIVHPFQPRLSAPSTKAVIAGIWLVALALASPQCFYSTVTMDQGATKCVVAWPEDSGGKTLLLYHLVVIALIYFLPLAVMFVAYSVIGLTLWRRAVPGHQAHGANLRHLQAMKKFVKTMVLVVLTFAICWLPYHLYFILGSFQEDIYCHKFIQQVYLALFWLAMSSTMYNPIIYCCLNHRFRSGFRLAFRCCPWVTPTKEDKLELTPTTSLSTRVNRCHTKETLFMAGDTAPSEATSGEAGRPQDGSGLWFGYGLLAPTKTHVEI
Description: [The source words this procedure for another target and reports this target under the same test.] as §1, §2

NK1, sequence (P25103 whole entry): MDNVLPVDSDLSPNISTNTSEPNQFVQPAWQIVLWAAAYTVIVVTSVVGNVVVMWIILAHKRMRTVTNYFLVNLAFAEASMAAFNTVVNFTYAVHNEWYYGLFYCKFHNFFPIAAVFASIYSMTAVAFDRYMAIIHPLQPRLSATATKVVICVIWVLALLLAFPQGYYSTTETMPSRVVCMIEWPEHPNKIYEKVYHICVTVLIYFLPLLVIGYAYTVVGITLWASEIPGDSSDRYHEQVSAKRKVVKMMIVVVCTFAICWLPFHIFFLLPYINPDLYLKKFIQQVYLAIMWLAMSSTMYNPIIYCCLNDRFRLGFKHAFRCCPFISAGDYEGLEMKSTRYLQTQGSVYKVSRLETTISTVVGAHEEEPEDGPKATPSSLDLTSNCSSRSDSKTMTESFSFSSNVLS

Row | Compound | IC50 [1] | IC50 [2] | IC50 [3] | pIC50 NK1 [1]
1 | O=C(c1ccoc1)N1CCCC(N2CCN(C3CCN(C(=O)c4cc(C(F)(F)F)cc(C(F)(F)F)c4)C(Cc4ccccc4)C3)CC2)C1 (stereo not shown) [Compound 17] | 31.6 nM | 2510 nM |  | 
2 | Cc1c(S(=O)(=O)N2CCCC(N3CCN([C@H]4CCN(C(=O)c5cc(C(F)(F)F)cc(C(F)(F)F)c5)[C@H](Cc5ccccc5)C4)CC3)C2)cnn1-c1ccccc1 (stereo partly shown) [Compound 44] | 63.1 nM | 5010 nM |  | 
3 | O=C(c1ccoc1)N1CCCC(N2CCCN(C3CCN(C(=O)c4cc(C(F)(F)F)cc(C(F)(F)F)c4)C(Cc4ccccc4)C3)CC2)C1 (single isomer, unassigned) [Compound 112] | 158 nM |  |  | 
4 | O=C(C1CCOC1)N1CCCC(N2CCCN(C3CCN(C(=O)c4cc(C(F)(F)F)cc(C(F)(F)F)c4)C(Cc4ccccc4)C3)CC2)C1 (single isomer, unassigned) [Compound 115] | 39.8 nM | 6310 nM |  | 
5 | O=C(c1cc(C(F)(F)F)cc(C(F)(F)F)c1)N1CCC(N2CCN(C3CCCNC3)CC2)CC1Cc1ccccc1 (stereo not shown) [Compound 108] | 79.4 nM |  |  | 
6 | CC(C)S(=O)(=O)N1CCCC(N2CCN([C@H]3CCN(C(=O)c4cc(C(F)(F)F)cc(C(F)(F)F)c4)[C@H](Cc4ccccc4)C3)CC2)C1 (stereo partly shown) [Compound 35] | 10 nM | 2000 nM |  | 
7 | O=C(c1ccccc1)N1CCCC(N2CCN([C@H]3CCN(C(=O)c4cc(C(F)(F)F)cc(C(F)(F)F)c4)[C@H](Cc4ccccc4)C3)CC2)C1 (stereo partly shown) [Compound 8] | 20 nM | 251 nM |  | 
8 | O=C(c1cc(C(F)(F)F)cc(C(F)(F)F)c1)N1CC[C@H](N2CCN(C3CCCN(S(=O)(=O)c4ccccc4Cl)C3)CC2)C[C@H]1Cc1ccccc1 (stereo partly shown) [Compound 27] | 20 nM | 1260 nM |  | 
9 | O=C(c1cc(C(F)(F)F)cc(C(F)(F)F)c1)N1CC[C@H](N2CCN(C3CCCN(C(=O)n4ccnc4)C3)CC2)C[C@H]1Cc1ccccc1 (stereo partly shown) [Compound 21] | 20 nM | 1260 nM |  | 
10 | O=C(c1ccccc1Cl)N1CCCC(N2CCCN([C@@H]3CCN(C(=O)c4cc(C(F)(F)F)cc(C(F)(F)F)c4)[C@H](Cc4ccccc4)C3)CC2)C1 (stereo partly shown) [Compound 119] | 126 nM |  |  | 
11 | O=C(c1cc(F)ccc1F)N1CCCC(N2CCN([C@H]3CCN(C(=O)c4cc(C(F)(F)F)cc(C(F)(F)F)c4)[C@H](Cc4ccccc4)C3)CC2)C1 (stereo partly shown) [Compound 12] | 25.1 nM | 3160 nM |  | 
12 | O=C(c1cc(C(F)(F)F)cc(C(F)(F)F)c1)N1CC[C@@H](N2CCCN(C3CCCN(S(=O)(=O)c4cccs4)C3)CC2)C[C@H]1Cc1ccccc1 (stereo partly shown) [Compound 120] | 200 nM | 7940 nM |  | 
13 | O=C(c1cc(C(F)(F)F)cc(C(F)(F)F)c1)N1CC[C@H](N2CCCN(C3CCCN(Cc4ccccc4)C3)CC2)C[C@H]1Cc1ccccc1 (stereo partly shown) [Compound 111] | 251 nM | 7940 nM |  | 
14 | COc1ccc(S(=O)(=O)N2CCCC(N3CCN([C@H]4CCN(C(=O)c5cc(C(F)(F)F)cc(C(F)(F)F)c5)[C@H](Cc5ccccc5)C4)CC3)C2)cc1F (stereo partly shown) [Compound 7] | 50.1 nM | 1000 nM |  | 
15 | CC(C)N/C(=C\[N+](=O)[O-])N1CCCC(N2CCN(C3CCN(C(=O)c4cc(C(F)(F)F)cc(C(F)(F)F)c4)C(Cc4ccccc4)C3)CC2)C1 (stereo not shown) [Compound 103] | 10 nM |  | 6310 nM | 
16 | O=C(C1CCOC1)N1CCCC(N2CCN([C@H]3CCN(C(=O)c4cc(C(F)(F)F)cc(C(F)(F)F)c4)[C@H](Cc4ccccc4)C3)CC2)C1 (stereo partly shown) [Compound 16] | 12.6 nM | 1000 nM |  | 
17 | O=C(c1cc(C(F)(F)F)cc(C(F)(F)F)c1)N1CCC(N2CCN(C3CCCNC3)CC2)CC1Cc1ccccc1 (single isomer, unassigned) [Compound 109] |  |  |  | 7.3
18 | O=C(c1cc(C(F)(F)F)cc(C(F)(F)F)c1)N1CCC(N2CCN(C3CCCNC3)CC2)CC1Cc1ccccc1 (stereo not shown) [Compound 2] | 20 nM |  |  | 
19 | Cc1cc(C)cc(C(=O)N2CCCC(N3CCN(C4CCN(C(=O)c5cc(C(F)(F)F)cc(C(F)(F)F)c5)C(Cc5ccccc5)C4)CC3)C2)c1 (stereo not shown) [Compound 3] | 79.4 nM | 2000 nM |  | 

Row | Compound | IC50 [1] | IC50 [2] | IC50 [3] | pIC50 NK1 [1]
20 | COc1ccc(C)cc1S(=O)(=O)N1CCCC(N2CCN([C@H]3CCN(C(=O)c4cc(C(F)(F)F)cc(C(F)(F)F)c4)[C@H](Cc4ccccc4)C3)CC2)C1 (stereo partly shown) [Compound 31] | 25.1 nM | 3160 nM |  | 
21 | Cc1cc(C)cc(C(=O)N2CCCC(N3CCN([C@@H]4CCN(C(=O)c5cc(C(F)(F)F)cc(C(F)(F)F)c5)[C@H](Cc5ccccc5)C4)CC3)C2)c1.O=C(O)/C=C/C(=O)O.O=C(O)/C=C/C(=O)O (stereo partly shown) [Compound 13] |  |  |  | 6.3
22 | O=C(c1cc(C(F)(F)F)cc(C(F)(F)F)c1)N1CC[C@H](N2CCN(C3CCCN(S(=O)(=O)c4ccc(O)c(F)c4)C3)CC2)C[C@H]1Cc1ccccc1 (stereo partly shown) [Compound 107] | 15.8 nM | 1260 nM |  | 
23 | Cc1occc1C(=O)N1CCCC(N2CCN([C@H]3CCN(C(=O)c4cc(C(F)(F)F)cc(C(F)(F)F)c4)[C@H](Cc4ccccc4)C3)CC2)C1 (stereo partly shown) [Compound 19] | 25.1 nM | 2000 nM |  | 
24 | Cc1cc(C(=O)N2CCCC(N3CCN([C@H]4CCN(C(=O)c5cc(C(F)(F)F)cc(C(F)(F)F)c5)[C@H](Cc5ccccc5)C4)CC3)C2)n(C)n1 (stereo partly shown) [Compound 42] | 7.94 nM | 2510 nM |  | 
25 | O=C(C(=O)N1CCCC(N2CCN(C3CCN(C(=O)c4cc(C(F)(F)F)cc(C(F)(F)F)c4)C(Cc4ccccc4)C3)CC2)C1)c1ccco1 (stereo not shown) [Compound 24] | 25.1 nM | 3980 nM |  | 
26 | CC(=O)N1CCC[C@H]1C(=O)N1CCCC(N2CCN([C@H]3CCN(C(=O)c4cc(C(F)(F)F)cc(C(F)(F)F)c4)[C@H](Cc4ccccc4)C3)CC2)C1 (stereo partly shown) [Compound 60] | 5.01 nM | 6310 nM |  | 
27 | O=C(C1CCOC1)N1CCCC(N2CCCN(C3CCN(C(=O)c4cc(C(F)(F)F)cc(C(F)(F)F)c4)C(Cc4ccccc4)C3)CC2)C1 (single isomer, unassigned) [Compound 121] | 126 nM | 7940 nM |  | 
28 | Cc1csc(C)c1S(=O)(=O)N1CCCC(N2CCN([C@H]3CCN(C(=O)c4cc(C(F)(F)F)cc(C(F)(F)F)c4)[C@H](Cc4ccccc4)C3)CC2)C1 (stereo partly shown) [Compound 33] | 39.8 nM | 1000 nM |  | 
29 | O=C(c1ccc(CCOCc2ccccc2)s1)N1CCCC(N2CCN(C3CCN(C(=O)c4cc(C(F)(F)F)cc(C(F)(F)F)c4)C(Cc4ccccc4)C3)CC2)C1 (stereo not shown) [Compound 93] | 126 nM | 5010 nM |  | 
30 | O=C(c1cc(C(F)(F)F)cc(C(F)(F)F)c1)N1CCC(N2CCN(C3CCCN(Cc4ccccc4)C3)CC2)CC1Cc1ccccc1 (stereo not shown) [Compound 1] | 50.1 nM |  |  | 
31 | O=C(C1CC1)N1CCCC(N2CCCN([C@@H]3CCN(C(=O)c4cc(C(F)(F)F)cc(C(F)(F)F)c4)[C@H](Cc4ccccc4)C3)CC2)C1 (stereo partly shown) [Compound 114] | 126 nM | 7940 nM |  | 
32 | O=C(c1cc(C(F)(F)F)cc(C(F)(F)F)c1)N1CC[C@@H](N2CCCN(C3CCCN(Cc4ccccc4)C3)CC2)C[C@H]1Cc1ccccc1 (stereo partly shown) [Compound 110] | 200 nM |  |  | 
33 | O=C(c1ccoc1)N1CCCC(N2CCCN(C3CCN(C(=O)c4cc(C(F)(F)F)cc(C(F)(F)F)c4)C(Cc4ccccc4)C3)CC2)C1 (single isomer, unassigned) [Compound 116] | 50.1 nM | 3980 nM |  | 
34 | CC1(C(=O)N2CCCC(N3CCN([C@H]4CCN(C(=O)c5cc(C(F)(F)F)cc(C(F)(F)F)c5)[C@H](Cc5ccccc5)C4)CC3)C2)CC1 (stereo partly shown) [Compound 14] | 12.6 nM | 2000 nM |  | 
35 | O=C(c1ccco1)N1CCCC(N2CCN([C@H]3CCN(C(=O)c4cc(C(F)(F)F)cc(C(F)(F)F)c4)[C@H](Cc4ccccc4)C3)CC2)C1 (stereo partly shown) [Compound 18] | 20 nM | 2510 nM |  | 
36 | O=C(c1ccccc1Cl)N1CCCC(N2CCCN([C@H]3CCN(C(=O)c4cc(C(F)(F)F)cc(C(F)(F)F)c4)[C@H](Cc4ccccc4)C3)CC2)C1 (stereo partly shown) [Compound 118] | 63.1 nM | 2510 nM |  | 
37 | O=C(c1cc(C(F)(F)F)cc(C(F)(F)F)c1)N1CC[C@H](N2CCN(C3CCCN(S(=O)(=O)c4ccc(-c5ccccn5)s4)C3)CC2)C[C@H]1Cc1ccccc1 (stereo partly shown) [Compound 34] | 50.1 nM | 2000 nM |  | 
38 | O=C(c1cc(C(F)(F)F)cc(C(F)(F)F)c1)N1CC[C@H](N2CCCN(C3CCCN(S(=O)(=O)c4cccs4)C3)CC2)C[C@H]1Cc1ccccc1 (stereo partly shown) [Compound 122] | 100 nM |  |  | 
